Assay results taken from paper PMC6274922, “Defined Small Molecules Produced by Himalayan Medicinal Plants Display Immunomodulatory Properties” (International Journal of Molecular Sciences, 2018).
Values after ≈ are worked out from the molar mass of the structure shown.

How the values were obtained:
in vitro = details: human
Procedure: (§1) The immortalized non-malignant human cholangiocyte cell line H69 is a SV40-transformed human bile duct epithelial cell line originally derived from a normal liver harvested for transplantation. […] Cytotoxicity screening of the test compounds against the H69 cell line was performed using an xCELLigence SP system (ACEA Biosciences Inc., San Diego, CA, USA) as described by us previously. All experiments were carried out as per the manufacturer’s instructions with 0.25–60 min read intervals using the real time cell assay (RTCA) software (ACEA Biosciences Inc., USA). All assays were conducted in triplicate. Inter-well spaces were filled with 100 µL of culture medium or PBS to prevent evaporation. The E-plates containing cells were seeded at 5000 cells/well and incubated overnight at 37 °C with 5% CO2. The cells were then treated with prepared concentrations (50, 100, 500 µg/mL) of the test compounds and the viability of the cells was monitored continually for 24 h.
(§2) We determined the IC50 values of test compounds based on the normalised cell index (nCI) for cells, as described previously. Briefly, the 24 h nCI relative to the negative DMSO treated controls (deemed 100%) on the y-axis was plotted against the log concentration value x-axis.

[1] = tested on: immortalized non-cancerous H69 human cholangiocyte cell line; test: Cytotoxicity by xCELLigence RTCA system
Procedure: as §1, §2

[2] = tested on: DC2.4 murine dendritic cell line; format: cell-based; details: for Median Fluorescence Intensity (MFI) of surface MHC-I expression: representative FACS plots, DC2.4 cells, media only control MFI 732
[3] = tested on: DC2.4 murine dendritic cell line; test: Gene expression analysis by RT-qPCR in DC2.4 cells; format: cell-based, mouse; details: for modulation of gene expression, in words: DC2.4 cells, mRNA correlated with FACS RFI (Figure 3)
Procedure: The following day, cells were harvested and 20,000 live cells from each condition were sorted by FACS into RLT buffer and RNA extracted for mRNA analysis by RT-qPCR. The relative gene expression for each gene was calculated for each compound and compared to the media control. We then correlated gene expression with protein expression represented by the FACS RFI (Figure 3). […] The SUM of the changes for all genes and proteins relative to the media-only control is summarized in the bottom right corner of Figure 3 SUM.
DC2.4 cells were co-cultured overnight with test compounds as described above. The following day, cells were harvested and 20,000 live cells from each condition were sorted by FACS into RLT buffer and stored at −70 °C. On the day of extraction, frozen cell lysates were thawed quickly on ice and mRNA was extracted using the RNEasy micro kit (Qiagen, Chadstone Centre, VIC, Australia) according to the manufacturer’s instructions. cDNA was synthesized using oligo-dT and AMVRT (Promega, Sydney, Australia) according to the manufacturer’s instructions. Gene expression was measured using individual Taqman gene expression assays (Applied Biosystems, Foster City, CA, USA) and Platinum Taq polymerase (Life Technologies, Carlsbad, CA, USA) in a 15 μL volume reaction using a Rotorgene 3000 PCR machine (Corbett Research, Mortlake, Australia) with the following conditions: 2 min at 50 °C for calibration of fluorescence gain values, then denaturing at for 2 min at 95 °C, followed by 45 cycles of 5 s at 95 °C and 30 s at 60 °C. Gene expression was quantified relative to a standard curve generated from a titration of cloned cDNA and relative gene expression was calculated by dividing the expression value of the test sample by that of the cells grown in media only. All assays were conducted in triplicate.

lung carcinoma (A549) = tested on: lung carcinoma (A549); design: method as in PMID 29555944; details: cited from earlier work
HT-29 cancer cell lines = tested on: HT-29 cancer cell lines; design: method as in PMID 29555944; details: cited from earlier work
[4] = tested on: multi-drug resistant Plasmodium falciparum; details: cited from earlier work
HL60 = tested on: HL60; design: method as in PMID 9584334; details: in vitro; cited from earlier work
[5] = tested on: A431 epithelial cancer cell lines; design: method as in PMID 9584334; details: in vitro; cited from earlier work
[6] = tested on: DC2.4 murine dendritic cell line; test: Combined FACS + PCR score of immunomodulation in DC2.4 cells; format: cell-based, mouse
Procedure: The following day, cells were harvested and 20,000 live cells from each condition were sorted by FACS into RLT buffer and RNA extracted for mRNA analysis by RT-qPCR. The relative gene expression for each gene was calculated for each compound and compared to the media control.
DC2.4 cells (4000 cells in exponential phase/200 µL) were cultured in 96-well flat bottom plates overnight with a titration of the test compound in media (stock concentration of 1 mg/mL and further titrated in tissue culture media at 4 mid-log dilutions starting at 100 µg/mL) or media only (modified DMEM, 50 µM 2-mercaptoethanol and 216 mg/L L-glutamine, 10% heat-inactivated FCS). Each compound was tested twice, in replicate assays. […] The RFI (relative fluorescence intensity) for each parameter was calculated by dividing the median fluorescence intensity (MFI) of the test sample by that of the control (media-only) samples.
DC2.4 cells were co-cultured overnight with test compounds as described above. […] Gene expression was quantified relative to a standard curve generated from a titration of cloned cDNA and relative gene expression was calculated by dividing the expression value of the test sample by that of the cells grown in media only. […]

Molecule: CC#CC#C/C=C1\C=CC2(CCCO2)O1 (centres unmarked) [Compound 5, (E)-spiroether]
- IC50 at 24 h (in vitro): < 1 µg/mL
- cell death ([1]; H69 cells, from 6 h with 100 µg/mL): 96.5%

Molecule: O=c1cc(-c2ccc(O)c(O)c2)oc2cc(O)cc(O)c12 [Compound 6, luteolin]
- IC50 at 24 h (in vitro): 30 µg/mL (≈ 105 µM)

Molecule: COc1cc2c(cc1O)[C@@H]1Cc3ccc(OC)c(O)c3CN1CC2 [Compound 10, scoulerine]
- Median Fluorescence Intensity (MFI) of surface MHC-I expression [2]: 1582
- modulation of gene expression, in words [3]: strong up-regulator of several important genes including MHC-I, CD80 and CD86
- cytotoxic activity, in words (lung carcinoma (A549)): significant cytotoxic activity
- cytotoxic activity, in words (HT-29 cancer cell lines): significant cytotoxic activity
- antimalarial activity, in words [4]: potent antimalarial drug lead compound

Molecule: COc1c2ccoc2cc2oc(=O)ccc12 [Compound 13, bergapten]
- Median Fluorescence Intensity (MFI) of surface MHC-I expression [2]: 304
- modulation of gene expression, in words [3]: suppression of expression of some genes, and notably MHC-I at both the gene and protein level
- IC50 at 24 h (in vitro): 126 µg/mL (≈ 585 µM)
- anti-proliferative activity, in words (HL60): anti-proliferative activity
- anti-proliferative activity, in words [5]: anti-proliferative activity

Molecule: protopine [Compound 8]
- FACS SUM ([2]; sum of the RFI of the 7 surface markers): 9.95
- PCR SUM ([3]; sum of the relative expression of the 7 genes): 10.01
- Ave. ([6]; average of FACS and PCR values): 1.43
- SUM FACS + PCR ([6]; sum of all FACS RFI and PCR relative expression values): 19.96
- IC50 (cytotoxicity) [1]: 9 µg/mL
- cell toxicity ([1]; H69 cells, at 24 h): 68%
- cell toxicity ([1]; H69 cells, from 6 h): 23%
